Reference: the CheMixHub drug solubility set

Experiment: xn = mol fraction of the nth substance listed, in the solute-free solvent

Clc1ncnc2[nH]ccc12 + C1CCOC1 + CC#N
solubility (g/100 g solution)
Conditions | 278.15 K | 283.15 K | 288.15 K | 293.15 K | 298.15 K | 303.15 K | 308.15 K | 313.15 K | 318.15 K | 323.15 K
x2 = 0.1144 | 1.32 | 1.6 | 1.93 | 2.31 | 2.76 | 3.28 | 3.83 | 4.5 | 5.24 | 6.02
x2 = 0.2441 | 2.03 | 2.39 | 2.84 | 3.33 | 3.92 | 4.49 | 5.24 | 5.97 | 6.81 | 7.73
x2 = 0.3923 | 3.17 | 3.65 | 4.24 | 4.84 | 5.58 | 6.34 | 7.13 | 8.04 | 9.06 | 10.1
x2 = 0.4748 | 3.9 | 4.49 | 5.13 | 5.83 | 6.63 | 7.45 | 8.34 | 9.34 | 10.4 | 11.5
x2 = 0.5636 | 5.02 | 5.61 | 6.32 | 7.09 | 8 | 8.89 | 9.89 | 10.9 | 12 | 13.2
x2 = 0.7635 | 7.14 | 8 | 8.83 | 9.79 | 10.7 | 11.8 | 12.8 | 14 | 15.2 | 16.4

CC(=O)Nc1ccc(OC(=O)c2ccccc2OC(C)=O)cc1 + CCO + O
solubility (g/100 g solution)
Conditions | 278.15 K | 283.15 K | 288.15 K | 293.15 K | 298.15 K | 303.15 K | 308.15 K | 313.15 K | 318.15 K
x2 = 0.04165 | 0.00299 | 0.00439 | 0.00634 | 0.00913 | 0.0133 | 0.0185 | 0.0258 | 0.0351 | 0.0474
x2 = 0.08908 | 0.00839 | 0.0122 | 0.0171 | 0.0242 | 0.0339 | 0.0464 | 0.0629 | 0.0839 | 0.112
x2 = 0.1436 | 0.0202 | 0.0284 | 0.0401 | 0.0539 | 0.0744 | 0.0995 | 0.133 | 0.175 | 0.232
x2 = 0.2068 | 0.037 | 0.0513 | 0.0699 | 0.0951 | 0.127 | 0.166 | 0.221 | 0.283 | 0.366
x2 = 0.2812 | 0.0604 | 0.0826 | 0.111 | 0.146 | 0.19 | 0.252 | 0.322 | 0.409 | 0.514
x2 = 0.3698 | 0.082 | 0.109 | 0.148 | 0.197 | 0.255 | 0.33 | 0.424 | 0.542 | 0.69
x2 = 0.4772 | 0.108 | 0.144 | 0.193 | 0.254 | 0.327 | 0.418 | 0.536 | 0.684 | 0.863
x2 = 0.6101 | 0.134 | 0.178 | 0.236 | 0.306 | 0.396 | 0.513 | 0.661 | 0.829 | 1.04
x2 = 0.7788 | 0.157 | 0.206 | 0.273 | 0.356 | 0.458 | 0.586 | 0.741 | 0.936 | 1.18

O=C1NS(=O)(=O)c2ccccc21 + CC#N + CC(C)O
solubility (g/100 g solution)
Conditions | x2 = 0.0998 | x2 = 0.2002 | x2 = 0.2999 | x2 = 0.3996 | x2 = 0.5004 | x2 = 0.5997 | x2 = 0.7001 | x2 = 0.7997 | x2 = 0.8996
293.15 K | 4.08 | 5.79 | 7.19 | 8.27 | 8.87 | 8.79 | 8.19 | 7 | 5.08
298.15 K | 4.75 | 6.64 | 8.05 | 9.07 | 9.79 | 9.66 | 8.97 | 7.68 | 5.75
303.15 K | 5.49 | 7.5 | 9.3 | 10.4 | 11.2 | 10.8 | 10.1 | 8.77 | 6.38
308.15 K | 6.33 | 8.56 | 10.5 | 11.7 | 12.3 | 12.3 | 11.5 | 9.73 | 7.32
313.15 K | 7.35 | 10 | 12.1 | 13.4 | 14.2 | 14.1 | 13.1 | 11.2 | 8.37
318.15 K | 8.79 | 11.8 | 14.1 | 15.5 | 16.3 | 16.2 | 15.1 | 12.9 | 9.59
323.15 K | 10.3 | 13.5 | 16 | 17.6 | 18.3 | 18 | 16.8 | 14.3 | 10.7

CC1(C)SC2C(NC(=O)C(NC(=O)N3CCNC3=O)c3ccccc3)C(=O)N2C1C(=O)O (stereo unspecified) + CCO + CC(C)O
solubility (g/100 g solution)
Conditions | 278.15 K | 283.15 K | 288.15 K | 293.15 K | 298.15 K | 303.15 K | 308.15 K | 313.15 K | 318.15 K | 323.15 K
x2 = 0.101 | 0.0833 | 0.0951 | 0.122 | 0.14 | 0.179 | 0.215 | 0.264 | 0.329 | 0.405 | 0.525
x2 = 0.2 | 0.0893 | 0.101 | 0.129 | 0.153 | 0.191 | 0.238 | 0.294 | 0.368 | 0.449 | 0.59
x2 = 0.301 | 0.119 | 0.135 | 0.164 | 0.208 | 0.248 | 0.287 | 0.369 | 0.426 | 0.528 | 0.687
x2 = 0.401 | 0.13 | 0.155 | 0.19 | 0.238 | 0.281 | 0.339 | 0.415 | 0.511 | 0.63 | 0.773
x2 = 0.5 | 0.154 | 0.182 | 0.223 | 0.279 | 0.345 | 0.399 | 0.484 | 0.636 | 0.78 | 0.991
x2 = 0.602 | 0.197 | 0.227 | 0.275 | 0.345 | 0.43 | 0.537 | 0.646 | 0.789 | 0.974 | 1.25
x2 = 0.703 | 0.268 | 0.302 | 0.368 | 0.464 | 0.539 | 0.677 | 0.857 | 1.05 | 1.29 | 1.61
x2 = 0.8 | 0.37 | 0.45 | 0.53 | 0.623 | 0.718 | 0.882 | 1.15 | 1.38 | 1.67 | 2.05
x2 = 0.9 | 0.54 | 0.618 | 0.748 | 0.927 | 1.11 | 1.35 | 1.69 | 2.01 | 2.39 | 2.92

CCOC(=O)C1=CC2(CC)CCCN3CCc4c(n1c1ccccc41)C32 (stereo unspecified) + CCO + O
solubility (g/100 g solution)
Conditions | 283.15 K | 288.15 K | 293.15 K | 298.15 K | 303.15 K | 308.15 K | 313.15 K | 318.15 K | 323.15 K
x2 = 0.2 | 0.00578 | 0.00816 | 0.0113 | 0.0153 | 0.0208 | 0.028 | 0.0375 | 0.0513 | 0.0683
x2 = 0.3 | 0.0454 | 0.0591 | 0.0768 | 0.0954 | 0.12 | 0.153 | 0.185 | 0.238 | 0.304
x2 = 0.4 | 0.106 | 0.138 | 0.178 | 0.211 | 0.277 | 0.346 | 0.421 | 0.524 | 0.668
x2 = 0.5 | 0.184 | 0.235 | 0.301 | 0.37 | 0.468 | 0.586 | 0.726 | 0.921 | 1.12
x2 = 0.6 | 0.257 | 0.331 | 0.43 | 0.52 | 0.639 | 0.824 | 0.996 | 1.25 | 1.54
x2 = 0.7 | 0.335 | 0.418 | 0.546 | 0.661 | 0.831 | 1.04 | 1.3 | 1.61 | 1.97
x2 = 0.8 | 0.372 | 0.479 | 0.612 | 0.757 | 0.941 | 1.21 | 1.47 | 1.87 | 2.26
x2 = 0.9 | 0.363 | 0.466 | 0.609 | 0.766 | 0.951 | 1.23 | 1.5 | 1.94 | 2.39
